Measured values: US8436004B2, “Bicycloaniline derivative” (MSD K.K., priority 2007, dated 2013)

Columns and labels:
Wee1 kinase = target: T1, Wee1 kinase (Homo sapiens, UniProt P30291); test: Wee1 kinase-inhibitory effect (33P-ATP, Poly(Lys,Tyr) substrate, filter assay); assay type: biochemical; settings: 10 μM ATP, 30° C., 30 minutes
T1 construct: made in house; host or cells: Sf9 insect cells (recombinant baculovirus)
Excerpt: Pharmacological Test 1 (Wee1 Kinase-Inhibitory Effect)
(1) Purification of Wee1 Kinase:
A cDNA of Wee1 kinase with […] (GST) fused at the amino terminal thereof was inserted into a baculovirus expression vector to construct a recombinant baculovirus, with which cells of an insect cell line Sf9 were infected for high expression therein. The infected cells were recovered and solubilized, and then the GST-tagged Wee1 kinase protein was adsorbed by a glutathion column, and eluted from the column with glutathion, and the active fraction was desalted in a desalting column to give a purified enzyme.
(2) Determination of Wee1 Kinase Activity:
In determination of the Wee1 kinase activity, a synthetic peptide, Poly(Lys,Tyr) Hydrobromide (Lys:Tyr (4:1)) bought from Sigma was used as the substrate.
The amount of the reaction liquid was 21.1 μL; and the composition of the reaction buffer was 50 mM Tris-HCl buffer (pH 7.4)/10 mM magnesium chloride/1 mM dithiothreitol. The purified Wee1 kinase, 2.5 μg of the substrate peptide, 10 μM of non-labeled adenosine triphosphate (ATP) and 1 μCi of [γ-^33P]-labeled ATP (2500 Ci/mmol or more) were added to it, and reacted at 30° C. for 30 minutes. Next, 10 μL of 350 mM phosphate buffer was added to the reaction system to stop the reaction. The substrate peptide was adsorbed by a P81 paper filter 96-well plate, then washed a few times with 130 mM phosphate buffer, and its radioactivity was counted with a liquid scintillation counter. The [γ-^33P]-labeled ATP was bought from Amersham Bioscience.
To add the test compound to the reaction system, the compound was diluted with dimethylsulfoxide (DMSO) to prepare a series of dilutions. 1.1 μL of each dilution was added to the reaction system. As a control, 1.1 μL of DMSO was added to the reaction system.

[1] = system: Cdc2 (Cdk1) tyrosine 15-phosphorylation in NCI-H1299 cells; test: Cdc2 (Cdk1) tyrosine 15-phosphorylation-inhibitory effect in camptothecin-treated NCI-H1299 cells (ELISA); assay type: cell-based; settings: Homo sapiens; NCI-H1299, camptothecin 200 nM 16 hours, then test compound + nocodazole 8 hours; read-out: Cdc2-Y15 Phosphorylation-Inhibitory Effect (H1299, + camptothecin) (EC50)
Excerpt: Pharmacological Test 2 (Method of Determining Drug Potency with Cells (Cdc2 (Cdk1) Tyrosine 15-Phosphorylation-Inhibitory Effect))
Fetal bovine serum (FBS) was obtained from Morgate; media RPMI1640 and DMEM were from Invitrogen; camptothecin was from Sigma; gemcitabine was from Nippon Eli Lilly; nocodazole and protease inhibitor cocktail were from Sigma; rabbit anti-Cdc2 antibody and mouse anti-Cdc2 antibody were from Santa Cruz Biotechnology; rabbit anti-tyrosine 15-phosphorylated Cdc2 antibody and horseradish peroxidase-labeled anti-mouse IgG antibody were from Cell Signaling Technology; sure blue reserve TMB peroxidase substrate was from Kirkegaard and Perry Laboratories.
Human non-small cell lung cancer cells (NCI-H1299) and human colon cancer cells (WiDr) were obtained from American Type Culture Collection (ATCC).
In the method of using NCI-H1299 cells, the cells were suspended in a medium of 10% FBS-added RPMI1640, and the cell suspension was applied to a 96-well Nunclondelta-processed plastic plate (bought from Nunc), in an amount of 2000 cells/100 μL/well, in which the cells were incubated overnight in 5% CO2-95% air at 37° C. Camptothecin was dissolved in dimethylsulfoxide (DMSO), and diluted with a medium of 10% FBS-added RPMI1640, and then this was applied to the plate on which the cells had been previously sowed, in an amount of 50 μL/well in such a manner that the final concentration of camptothecin could be 200 nM. Then, the cells were incubated for 16 hours at 37° C. in 5% CO2-95% air. The test compound was stepwise diluted with DMSO, then diluted with 4000 nM nocodazole-containing, 10% FBS-added RPMI1640, and applied to the plate on which the camptothecin-treated cells had been sowed, in an amount of 50 μL/well. The cells were incubated for 8 hours at 37° C. in 5% CO2-95% air, then the culture was removed, and a cytolytic buffer was added to the plate in an amount of 100 μL/well, shaken at 4° C. for 2 hours, then frozen at −80° C., and thawed to give a cell solution. Cdc2 and tyrosine 15-phosphorylated Cdc2 in the cell solution were determined through enzyme-linked immunosorbent assay (ELISA), and the ratio of tyrosine 15-phosphorylated Cdc2 to Cdc2 was calculated to obtain the 50% phosphorylation-inhibitory concentration of the test compound to the cells (EC50, nM). The cytolytic buffer used herein is an aqueous solution containing 20 mM Hepes (pH 7.5), 150 mM sodium chloride, 1 mM disodium ethylenediaminetetraacetate, 0.1% polyoxyethylene (10) octylphenyl ether, 1% protease inhibitor cocktail, 1 mM dithiothreitol, 2 mM sodium orthovanadate, 10 mM sodium fluoride and 10 mM glycerol diphosphate. Cdc2 was determined through ELISA as follows: A rabbit anti-Cdc2 antibody solution, which had been diluted 200-fold with 50 mM carbonate-bicarbonate buffer (pH 9.6), was applied to a 96-well maxisorpimmuno plate (bought from Nunc), in an amount of 50 μL/well, and statically kept overnight at 4° C. so as to fix the antibody on the plate. Next, this was washed three times with phosphate-buffered physiological saline (PBS), and 5% bovine serum albumin-containing PBS (5% BSA/PBS) was added thereto in an amount of 300 μL/well, and statically kept at room temperature for 2 hours, and then again washed three times with PBS. A mouse anti-Cdc2 antibody solution that had been diluted 100-fold with 0.05% polyoxyethylene sorbitan monolaurate and 1% BSA-containing Tris-HCl-buffered physiological saline (1% BSA/TBS-T) was added to it in an amount of 50 μL/well, and the cell solution was added thereto in an amount of 5 μL/well and statically kept overnight at 4° C. Next, this was washed three times with 0.05% polyoxyethylene sorbitan monolaurate and 0.1% BSA-containing Tris-HCl-buffered physiological saline (0.1% BSA/TBS-T), and then a horseradish peroxidase-labeled anti-mouse IgG antibody solution that had been diluted 2000-fold with 1% BSA/TBS-T was added thereto in an amount of 70 μL/well, and statically kept at room temperature for 3 hours. […]

T1 sequence (P30291 whole entry): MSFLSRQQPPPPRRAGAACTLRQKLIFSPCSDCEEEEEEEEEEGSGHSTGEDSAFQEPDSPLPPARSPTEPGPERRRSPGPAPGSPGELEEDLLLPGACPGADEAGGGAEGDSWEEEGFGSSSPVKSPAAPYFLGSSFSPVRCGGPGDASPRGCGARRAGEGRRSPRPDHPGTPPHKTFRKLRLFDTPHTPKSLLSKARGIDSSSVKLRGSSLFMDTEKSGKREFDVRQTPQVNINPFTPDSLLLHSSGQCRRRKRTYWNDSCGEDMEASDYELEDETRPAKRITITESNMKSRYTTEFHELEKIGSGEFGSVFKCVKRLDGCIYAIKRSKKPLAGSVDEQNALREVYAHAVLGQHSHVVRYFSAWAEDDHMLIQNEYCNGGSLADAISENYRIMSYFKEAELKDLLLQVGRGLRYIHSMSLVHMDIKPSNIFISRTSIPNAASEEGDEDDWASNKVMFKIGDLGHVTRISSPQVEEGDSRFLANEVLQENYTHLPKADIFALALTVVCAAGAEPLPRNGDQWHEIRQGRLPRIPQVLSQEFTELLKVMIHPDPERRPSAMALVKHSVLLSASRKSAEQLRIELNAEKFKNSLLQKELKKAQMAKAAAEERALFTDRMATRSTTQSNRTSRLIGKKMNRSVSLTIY

| Compound | IC50 (Wee1 kinase) [nM] | EC50 [1] [nM] |
| --- | --- | --- |
| CN1CCc2cc(Nc3ncc4c(=N)n(-c5c(Cl)ccnc5Cl)c(=O)[nH]c4n3)ccc2C1(C)C [Example 5, 3-(2,4-dichloropyridin-3-yl)-4-imino-7-{[1,1,2-trimethyl-1,2,3,4-tetrahydroisoqunolin-6-yl]amino}-3,4-dihydropyrimido[4,5-d]pyrimidin-2(1H)-one] | 9.6 | 70 |
| Cc1cccc(Cl)c1-n1c(=O)[nH]c2nc(Nc3ccc4c(c3)CN(C)CC43CC3)ncc2c1=N [Example 14, 3-(2-chloro-6-methylphenyl)-4-imino-7-[(2′-methyl-2′,3′-dihydro-1′H-spiro[cyclopropane-1,4′-isoquinolin]-7′-yl)amino]-3,4-dihydropyrimido[4,5-d]pyrimidin-2(1H)-one] | 10.4 | 77 |
| CN1CCc2ccc(Nc3ncc4c(=N)n(-c5c(F)cccc5Cl)c(=O)[nH]c4n3)cc2C1 [Example 16, 3-(2-chloro-6-fluorophenyl)-4-imino-7-{[2-methyl-1,2,3,4-tetrahydroisoquinolin-7-yl]amino}-3,4-dihydropyrimido[4,5-d]pyrimidin-2(1H)-one] | 6.8 | 50 |
| CN1CCc2ccc(Nc3ncc4c(=N)n(-c5c(F)cc(F)cc5Cl)c(=O)[nH]c4n3)cc2C1 [Example 17, 3-(2-chloro-4,6-difluorophenyl)-4-imino-7-{[2-methyl-1,2,3,4-tetrahydroisoquinolin-7-yl]amino}-3,4-dihydropyrimido[4,5-d]pyrimidin-2(1H)-one] | 9.2 | 47 |
| CN1CCc2ccc(Nc3ncc4c(=N)n(-c5c(Cl)cc(F)cc5Cl)c(=O)[nH]c4n3)cc2C1 [Example 18, 3-(2,6-dichloro-4-fluorophenyl)-4-imino-7-{[2-methyl-1,2,3,4-tetrahydroisoquinolin-7-yl]amino}-3,4-dihydropyrimido[4,5-d]pyrimidin-2(1H)-one] | 8.9 | 35 |
| Cc1cc(Nc2ncc3c(=N)n(-c4c(Cl)cccc4Cl)c(=O)[nH]c3n2)cc2c1CCN(C)C2 [Example 21, 3-(2,6-dichlorophenyl)-7-{[2,5-dimethyl-1,2,3,4-tetrahydroisoquinolin-7-yl]amino}-4-imino-3,4-dihydropyrimido[4,5-d]pyrimidin-2(1H)-one] | 4.8 | 11 |
| CC(=O)N1CCc2cc(Nc3ncc4c(=N)n(-c5c(Cl)cccc5Cl)c(=O)[nH]c4n3)ccc2C1(C)C [Example 79, 7-[(2-acetyl-1,1-dimethyl-1,2,3,4-tetrahydroisoquinolin-6-yl)amino]-3-(2,6-dichlorophenyl)-4-imino-3,4-dihydropyrimido[4,5-d]pyrimidin-2(1H)-one] | 6.3 | – |
| CN1Cc2cc(Nc3ncc4c(=O)n(-c5c(Cl)cccc5Cl)c(=O)[nH]c4n3)ccc2C2(CC2)C1 [Example 82, 3-(2,6-dichlorophenyl)-7-[(2′-methyl-2′,3′-dihydro-1′H-spiro[cyclopropane-1,4′-isoquinolin]-7′-yl)amino]pyrimido[4,5-d]pyrimidin-2,4(1H,3H)-dione] | 3.3 | 30 |

The next lines start with the values.

| IC50 (Wee1 kinase) [nM] | EC50 [1] [nM] | Compound |
| --- | --- | --- |
| 8.3 | 28 | CN1CCc2cc(Nc3ncc4c(=N)n(-c5c(Cl)cccc5Cl)c(=O)[nH]c4n3)ccc2C1(C)C [Example 4, 3-(2,6-dichlorophenyl)-4-imino-7-[(1,1,2-trimethyl-1,2,3,4-tetrahydroisoquinolin-6-yl)amino]-3,4-dihydropyrimido[4,5-d]pyrimidin-2(1H)-one] |
| 6.6 | 24 | CN(C)C1Cc2ccc(Nc3ncc4c(=N)n(-c5c(Cl)cccc5Cl)c(=O)n(C)c4n3)cc2C1 (stereo not drawn) [Example 9] |
| 13.1 | 61 | CN(C)C1CC(C)(C)c2ccc(Nc3ncc4c(=N)n(-c5c(Cl)cccc5Cl)c(=O)[nH]c4n3)cc21 (stereo not drawn) [Example 10] |
| 5.2 | 16 | Cn1c(=O)n(-c2c(Cl)cccc2Cl)c(=N)c2cnc(Nc3ccc4c(c3)CCN(CCO)C4(C)C)nc21 [Example 22, 3-(2,6-dichlorophenyl)-7-{[2-(2-hydroxyethyl)-1,1-dimethyl-1,2,3,4-tetrahydroisoquinolin-6-yl]amino}-4-imino-1-methyl-3,4-dihydropyrimido[4,5-d]pyrimidin-2(1H)-one] |
| 7.1 | 25 | CCN1CCc2cc(Nc3ncc4c(=N)n(-c5c(Cl)cccc5Cl)c(=O)[nH]c4n3)ccc2C1 [Example 30, 3-(2,6-dichlorophenyl)-4-imino-7-{[2-ethyl-1,2,3,4-tetrahydroisoquinolin-6-yl]amino}-3,4-dihydropyrimido[4,5-d]pyrimidin-2(1H)-one] |
| 6.5 | 37 | CN(C)C1Cc2ccc(Nc3ncc4c(=N)n(-c5c(Cl)cccc5Cl)c(=O)[nH]c4n3)cc2C1 (stereo not drawn) [Example 39] |
| 5.1 | 45 | CN(C)C1CCc2ccc(Nc3ncc4c(=N)n(-c5c(Cl)cccc5Cl)c(=O)[nH]c4n3)cc2C1 (stereo not drawn) [Example 43] |
| 8.6 | 54 | CN1CCc2ccc(Nc3ncc4c(=N)n(-c5c(Cl)cccc5Cl)c(=O)[nH]c4n3)cc2CC1 [Example 48, 3-(2,6-dichlorophenyl)-4-imino-7-[(3-methyl-2,3,4,5-tetrahydro-1H-3-benzazepin-7-yl)amino]-3,4-dihydropyrimido[4,5-d]pyrimidin-2(1H)-one] |
| 6.5 | 59 | CN(C)CC1CCc2cc(Nc3ncc4c(=N)n(-c5c(Cl)cccc5Cl)c(=O)[nH]c4n3)ccc2C1 (stereo not drawn) [Example 53] |
